The target of the assay is PDE4A (catalytic domain of PDE4A10) (Homo sapiens, UniProt P27815). Briefly: enthalpy array nanocalorimetry, cAMP hydrolysis. Format: biochemical.

By Ki is commonly meant the dissociation constant of the complex between target and ligand, obtained from inhibition or displacement. Higher therefore signals lower affinity.

Molecules are shown by their SMILES.

Sequence of PDE4A (catalytic domain of PDE4A10) (P27815 351-683): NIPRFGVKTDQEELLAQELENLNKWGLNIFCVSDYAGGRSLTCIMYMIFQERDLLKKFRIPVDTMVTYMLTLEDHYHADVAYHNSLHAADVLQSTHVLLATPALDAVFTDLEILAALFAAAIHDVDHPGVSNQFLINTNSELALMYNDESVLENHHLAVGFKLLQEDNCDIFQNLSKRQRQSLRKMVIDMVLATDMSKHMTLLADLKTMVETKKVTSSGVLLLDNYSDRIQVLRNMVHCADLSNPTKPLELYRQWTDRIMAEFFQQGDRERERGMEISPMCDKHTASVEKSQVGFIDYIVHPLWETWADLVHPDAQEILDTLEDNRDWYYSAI

`CC(C)Cn1c(=O)n(C)c(=O)c2[nH]cnc21` [IBMX] returned a Ki of 8.3 ± 1.5 µM.

These data come from article PMC3745005 (Journal of biomolecular screening, 2012).
